Tests used:
[1] = Solubility of As4S4 in solvents; type: physicochemical; settings: polyvinylpyrrolidone, pyrrolidone, alcohol, ether, di-sodium hydrophosphate, mercaptopurine, sodium bicarbonate; various concentrations
Procedure: In other experiments, a number of solvents, such as polyvinylpyrrolidone, pyrrolidone, alcohol, ether, di-sodium hydrophosphate, mercaptopurine and sodium bicarbonate, were tested to increase solubility of As4S4. […] Accordingly, As4S4 solubilized in the above solvents is useful for intravenous administration.

[2] = system: acute promyelocytic leukemia (APL); test: Clinical treatment of APL patients with arsenic disulfide; type: in vivo, human
From the text: (§1) Newly diagnosed, or relapsing patients are given a different protocol of treatment than are those patients who are in current remission. […] Preferably the dose given will range from approximately 0.5 to approximately 0.75 gram of arsenic disulfide. This equates to 2 to 3 capsules, according to the above formulation, by mouth for one dose. After the initial three days, the patient is given the compound three times daily until remission is induced. To prevent complications due to the potential build up of arsenic in the body, treatment should not exceed 100 days. In most cases, favorable response should be induced before forty days of treatment. These later doses may be somewhat reduced in amount compared to the original three day dosages. […] At this point, the patient should be reevaluated through testing, and allowed to rest before beginning another course of treatment according to the present protocol.
(§2) The patient then abstains from treatment for a set period of time. During this time, the patient is tested. Treatment is adjusted according to test results with the period of abstention lasting from two weeks to 100 days, depending upon results. The length of the maintenance procedure varies according to patients' conditions, and may last as long as 3 years (including treating and resting periods). Each dose during this phase of treatment preferably contains arsenic disulfide in the range of approximately 0.50 to 0.75 gram. Once again the preferred method of administration is orally through use of a capsule as described above. Usually, a maintenance treatment is divided into two stages.
All patients who make up a part of the case studies have been diagnosed with APL on the basis of cell morphology of AML-M3, that is acute hypergranular promyelocytic leukemia, immunological cell markers, chromosomal analysis showing (15;17) translocation, and positive PML/RARα mRNA expression. Some patients were referred to the study with a diagnosis based solely on pathologic changes in cell morphology; these patients' diagnoses were tracked and reconfirmed throughout the study. Chronic myeloid leukemia and lymphoma patients have also benefitted from arsenic disulfide treatment, as illustrated by case studies 3 and 4.
Fifty-one patients met the inclusion criteria for the study.
(§3) Exclusion criteria for the study included history of hypersensitivity to arsenic compounds, previous treatment with arsenic-containing medications, patient in critical condition, excessively low or high white blood counts, existing heart, liver or kidney conditions, and severe infection. Three patients were excluded on these grounds, leaving 48 patients in the study. All 48 cases were treated with arsenic disulfide according to the above protocol. ATRA or other cytotoxic agents were not used. All 48 patients are living and Leukemia free as of April, 1998.

[3] = Side effects of arsenic disulfide treatment in patients; type: in vivo, human
From the text: as §1, §2, §3
Side effects of treatment with arsenic disulfide are minimal when compared to those of other antineoplastic agents. Potential side effects include loss of appetite, mild diarrhea, and transient reversible increase of aspartate aminotransferase (AST). A minority of patients experienced cutaneous itching or puffing of the eyelids, and mild leukopenia occurred slowly in 34% of patients. One patient had thrombocytopenia without bleeding. There were no deaths associated with the use of arsenic sulfide.

[4] = system: chronic myeloid leukemia (CML); test: Case study 3: chronic myeloid leukemia patient; type: in vivo, human; settings: case study 3, 0.6 gram twice daily
Procedure: A person was diagnosed as having chronic myeloid leukemia (CML) in February, 1959. […] Initially, they were treated with Myleran. On Jan. 20, 1960, the white blood cell count was […] showing a differential count of 11% promyelocyte and myelocyte. […] Patient was given 0.6 gram of arsenic disulfide twice daily. While being treated, blood and bone marrow pictures were controlled. The patient died, on Sep. 5, 1965 from infection unrelated to the arsenic sulfide treatment.

[5] = system: non-Hodgkin's lymphoma; test: Case study 4: non-Hodgkin's lymphoma patient; type: in vivo, human; settings: case study 4, resistant to conventional anticancer treatment; since March, 1998
From the text: as §1
A person diagnosed with non-Hodgkin's lymphoma in September 1996 was treated with a combination chemotherapy regimen and had cranial irradiation for meningeal lymphoma. They also had high dose chemo-radiotherapy for autologous stem cell transplant. The patient has several relapses including intracranial relapse and a large amount of lymphoma cells in peripheral blood with typical clinical and laboratory features of lymphoma/leukemia. […]

[6] = EPA/600/8-91/061; cited from earlier work
[7] = in vivo; cited from earlier work
[8] = system: refractory APL; settings: intravenous 10 mg/day for 4–9 weeks; cited from earlier work
[9] = system: NB4 cells; settings: in vitro, APL cell line; cited from earlier work

S1[As]2S[As]3S[As]2S[As]13 [arsenic disulfide]
solubility in solvents [1]: soluble
time to complete remission level ([2]; case study 1): 36 days
blast cells and leukemic promyelocytes ([2]; case study 1, Aug. 28, 1997): less than 5%
hemoglobin and platelet levels ([2]; case study 1, FIG. 1): marked increase
blasts and white blood cells ([2]; case study 1, FIG. 2): dramatic decrease
clinical outcome ([2]; case study 1, newly diagnosed APL): complete remission
blasts and white blood cells ([2]; case study 2, FIG. 4): dramatic change
clinical outcome ([2]; case study 2, relapsed APL, treated 21 days): complete remission
patients living and leukemia free ([2]; of 48 APL patients treated, as of April, 1998, no ATRA or cytotoxic agents): 48 patients
patients attaining complete remission after one course of treatment ([2]; of ten newly diagnosed or relapsed patients): Eight
markers indicating residual leukemia cells after maintenance protocol ([2]; patients in complete remission before treatment with positive markers): persistently negative
patients alive and remaining in complete remission, leukemia free ([2]; ten newly diagnosed or relapsed patients): All ten
deaths associated with use ([3]; human, in vivo): no deaths
thrombocytopenia without bleeding ([3]; human, in vivo): One patient
mild leukopenia, incidence ([3]; occurred slowly): 34 % of patients
side effects compared to other antineoplastic agents ([3]; patients): minimal
blood and bone marrow pictures [4]: controlled
clinical outcome [5]: in remission
carcinogenicity classification [6]: human carcinogens

S=[As]S[As]=S (stereo not drawn) [arsenic trisulfide]
carcinogenicity classification [6]: human carcinogens
tumorigenicity [7]: inconclusive

calcium arsenate [reference compound]
tumorigenicity [7]: tumorigenic

arsenic trioxide
patients with complete morphologic remission [8]: 14 of 15
apoptosis (programmed cell death) [9]: induced apoptosis
